From paper PMC4626104, “Inhibition on Proteasome β1 Subunit Might Contribute to the Anti-Cancer Effects of Fangchinoline in Human Prostate Cancer Cells” (PLoS ONE, 2015)

Test system: PC-3 cells
Assay: Flow cytometric analysis of apoptosis (Annexin V/PI) in PC-3 cells
Assay type: cell-based, human
Details: 24 h
Description: The induction of cell cycle arrest and apoptosis by fangchinoline in PC-3 cells was observed by using flow cytometric analysis as described in our previous reports. Briefly, for flow cytometry analysis of cell cycle, cells were collected after treatment, washed with PBS and then fixed with 70% ethanol at 4°C for overnight. After PBS washes, cells were re-suspended in staining buffer (10 mg/mL RNase A and […] propidium iodide in cold PBS) for 30 min in dark at room temperature and then analyzed using FACSCalibur Flow Cytometer. For flow cytometric analysis of apoptosis, Alexa Fluor 488 Annexin V & PI /Dead cell Apoptosis Kit (Invitrogen) was used. Cells were collected after treatment, washed with PBS and then resuspended in binding buffer and then incubated with Annexin V-FITC and propidium iodide for 15 min in dark at room temperature. Then, flow cytometric analysis was conducted and data analysis was performed with CellQuest software.

COc1ccc2cc1Oc1ccc(cc1)C[C@H]1c3cc(c(OC)cc3CCN1C)Oc1c(O)c(OC)cc3c1[C@H](C2)N(C)CC3 [fangchinoline]
Percentage (%) of apoptotic cells (Annexin^+/PI^+) (5 μM): 6.74±1.14 %
Percentage (%) of apoptotic cells (Annexin^+/PI^+) (8 μM): 10.79±0.51 %
Percentage (%) of apoptotic cells (Annexin^+/PI^+) (12 μM): 13.53±0.19 %
Percentage (%) of apoptotic cells (Annexin^+/PI^+) (18 μM): 28.10±5.93 %
Percentage (%) of apoptotic cells (Annexin^+/PI^+) (27 μM): 37.52±4.04 %
Percentage (%) of apoptotic cells (Annexin^+/PI^+) (40 μM): 49.77±2.23 %
